# Experimental data as given in ChEMBL document CHEMBL3745648, “Synthesis, in vitro antibacterial activities of a series of 3-N-substituted canthin-6-ones” (2016).
# Columns and labels:
# Assay type in all cases: functional
# Ralstonia solanacearum [1] = assay: Antibacterial activity against Ralstonia solanacearum after 12 to 16 hrs by plate reader analysis
# Bacillus cereus = assay: Antibacterial activity against Bacillus cereus after 12 to 16 hrs by plate reader analysis
# Ralstonia solanacearum [2] = assay: Antibacterial activity against Pseudomonas solanacearum after 12 to 16 hrs by plate reader analysis
# Staphylococcus aureus = assay: Antibacterial activity against Staphylococcus aureus after 12 to 16 hrs by plate reader analysis
Structure (SMILES),MIC (Ralstonia solanacearum [1]) [µg/mL],MIC (Bacillus cereus) [µg/mL],MIC (Ralstonia solanacearum [2]) [µg/mL],MIC (Staphylococcus aureus) [µg/mL]
O=c1ccc2c3c(cc[n+]2Cc2ccccc2)c2ccccc2n13.[Br-],3.91,3.91,7.81,0.98
O=C1CCc2nccc3c4ccccc4n1c23,15.6,15.6,7.81,125
CC(C)C[n+]1ccc2c3ccccc3n3c(=O)ccc1c23.[I-],> 125,> 125,62.5,125
CC[n+]1ccc2c3ccccc3n3c(=O)ccc1c23.[I-],> 125,> 125,> 125,> 125
O=c1ccc2c3c(cc[n+]2Cc2ccc(F)cc2F)c2ccccc2n13.[Cl-],31.2,31.2,7.81,0.98
CC1(C)S[C@@H]2[C@H](NC(=O)[C@H](N)c3ccccc3)C(=O)N2[C@H]1C(=O)[O-].[Na+] [AMPICILLIN SODIUM],7.81,3.91,7.81,3.91
Cc1ccc(C[n+]2ccc3c4ccccc4n4c(=O)ccc2c34)cc1.[Cl-],31.2,15.6,7.81,1.95
O=c1ccc2c3c(cc[n+]2Cc2ccc(F)cc2)c2ccccc2n13.[Cl-],31.2,31.2,15.6,1.95
O=c1ccc2c3c(cc[n+]2Cc2c(F)cccc2F)c2ccccc2n13.[Cl-],15.6,15.6,7.81,0.98
O=c1ccc2c3c(cc[n+]2Cc2ccc(C(F)(F)F)cc2)c2ccccc2n13.[Cl-],15.6,62.5,62.5,7.81
C=CC[n+]1ccc2c3ccccc3n3c(=O)ccc1c23.[Br-],62.5,125,62.5,62.5
O=c1ccc2c3c(cc[n+]2Cc2ccc(Cl)cc2)c2ccccc2n13.[Cl-],15.6,15.6,15.6,7.81
CCCC[n+]1ccc2c3ccccc3n3c(=O)ccc1c23.[I-],62.5,125,62.5,62.5
CC(C)[n+]1ccc2c3ccccc3n3c(=O)ccc1c23.[I-],> 125,> 125,> 125,> 125
O=c1ccc2c3c(cc[n+]2Cc2ccc(CBr)cc2)c2ccccc2n13.[Br-],31.2,62.5,31.2,7.81
Cc1cccc(C[n+]2ccc3c4ccccc4n4c(=O)ccc2c34)c1.[Cl-],15.6,15.6,7.81,1.95
O=c1ccc2nccc3c4ccccc4n1c23 [CANTHIN-6-ONE],7.81,7.81,3.91,31.2
O=c1ccc2c3c(cc[n+]2Cc2ccc(OCc4ccccc4)cc2)c2ccccc2n13.[Cl-],7.81,15.6,3.91,0.98
O=C1CCC2c3c(c4ccccc4n31)CCN2Cc1ccccc1 (stereo unspecified),> 125,> 125,> 125,> 125
C[n+]1ccc2c3ccccc3n3c(=O)ccc1c23.[I-],> 125,> 125,> 125,> 125
O=c1ccc2c3c(cc[n+]2Cc2ccccc2F)c2ccccc2n13.[Cl-],15.6,7.81,3.91,1.95
Cc1ccccc1C[n+]1ccc2c3ccccc3n3c(=O)ccc1c23.[Cl-],7.81,7.81,3.91,1.95
C[C@@H]1O[C@@H]1P(=O)([O-])[O-].[Na+].[Na+] [PHOSPHOMYCIN DISODIUM],1.95,3.91,125,3.91
CCCCCCCC[n+]1ccc2c3ccccc3n3c(=O)ccc1c23.[Br-],31.2,62.5,7.81,0.98
O=c1ccc2c3c(cc[n+]2[O-])c2ccccc2n13,15.6,15.6,7.81,15.6
O=c1ccc2c3c(cc[n+]2Cc2ccccc2)c2ccccc2n13.[Cl-],3.91,3.91,1.95,1.95
O=C1CCC2NCCc3c2n1c1ccccc31 (stereo unspecified),> 125,> 125,> 125,> 125
CCCCC[n+]1ccc2c3ccccc3n3c(=O)ccc1c23.[I-],31.2,62.5,15.6,31.2
CCC[n+]1ccc2c3ccccc3n3c(=O)ccc1c23.[I-],> 125,> 125,> 125,> 125
